Measured values reported in patent US20110301146A1 (ONCOTHERAPY SCIENCE, INC., priority 2008, published 2011).
pIC50: −log10 of the molar value.

Target: T1, GSK-3beta (Homo sapiens, UniProt P49841)
T1 construct: purchased Invitrogen
Experiment: Z'-LYTE kinase assay (FRET, SER/THR 9 peptide)
Assay type: biochemical
Conditions: 0.04 ng/micro-l GSK-3beta (Invitrogen), 2 micro-M SER/THR 9 peptide, 15 micro-M ATP, 1 hour at room temperature, 1% DMSO
Procedure: The Z′-LYTE kinase assay kit employs a fluorescence resonance energy transfer (FRET) between two fluorophores, coumarin and fluorescein, attached to each end of a substrate peptide.
For 0% phosphorylation control, ATP was omitted from the reaction mixture. For 100% phosphorylation control, SER/THR 9 phosphopeptide was used in place of the SER/THR 9 peptide. Following 1 hour incubation at room temperature, the reaction was stopped by the addition of half assay volume of development solution and further incubated for 1 hour at room temperature. […] The extent of phosphorylation was determined according to the 0% and 100% phosphorylation control samples using the following equation: […]
IC50 values were calculated by nonlinear four parameter fit using SigmaPlot, version 10.0 (Systat Software, Inc.).

T1 sequence (P49841 whole entry): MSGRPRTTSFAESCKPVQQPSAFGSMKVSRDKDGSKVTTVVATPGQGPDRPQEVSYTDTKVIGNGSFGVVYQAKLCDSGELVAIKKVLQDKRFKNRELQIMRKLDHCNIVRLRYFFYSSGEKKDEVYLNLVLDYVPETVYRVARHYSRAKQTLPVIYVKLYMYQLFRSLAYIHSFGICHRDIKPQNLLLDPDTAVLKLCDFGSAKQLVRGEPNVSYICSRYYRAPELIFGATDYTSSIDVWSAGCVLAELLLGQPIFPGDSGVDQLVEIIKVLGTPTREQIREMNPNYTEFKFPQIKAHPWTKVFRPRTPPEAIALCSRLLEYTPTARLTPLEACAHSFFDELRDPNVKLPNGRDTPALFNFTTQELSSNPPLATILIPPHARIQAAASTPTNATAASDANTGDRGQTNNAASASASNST

Row | Structure (SMILES) | pIC50
1 | O=C(NCC1CCNCC1)c1ccc(O)c2[nH]c(C3CC3)nc12 [Example 5, 2-Cyclopropyl-4-hydroxy-N-(piperidin-4-ylmethyl)-1H-benzo[d]imidazole-7-carboxamide] | 6.49
2 | O=C(N[C@H]1CCCNC1)c1ccc(O)c2[nH]c(C3CC3)nc12 [Example 9, (S)-2-cyclopropyl-4-hydroxy-N-(piperidin-3-yl)-1H-benzo[d]imidazole-7-carboxamide] | 7.00
3 | O=C(NC1CCNCC1)c1ccc(O)c2[nH]c(C3CC3)nc12 [Example 10, 2-cyclopropyl-4-hydroxy-N-(piperidin-4-yl)-1H-benzo[d]imidazole-7-carboxamide] | 7.52
4 | O=C(NC1CCCNC1)c1ccc(O)c2[nH]c(C3CC3)nc12 (stereo not drawn) [Example 11, 2-cyclopropyl-4-hydroxy-N-(piperidin-3-yl)-1H-benzo[d]imidazole-7-carboxamide] | 6.72
5 | O=C(NCC1CCCCN1)c1ccc(O)c2[nH]c(C3CCCC3)nc12 (stereo not drawn) [Example 14, 2-cyclopentyl-4-hydroxy-N-(piperidin-2-ylmethyl)-1H-benzo[d]imidazole-7-carboxamide] | 5.89
6 | O=C(NCC1CCCNC1)c1ccc(O)c2[nH]c(C3CCCC3)nc12 (stereo not drawn) [Example 15, 2-Cyclopentyl-4-hydroxy-N-(piperidin-3-ylmethyl)-1H-benzo[d]imidazole-7-carboxamide] | 6.89
7 | O=C(NCC1CCCCN1)c1ccc(O)c2[nH]c(-c3ccccc3)nc12 (stereo not drawn) [Example 18, 4-Hydroxy-2-phenyl-N-(piperidin-2-ylmethyl)-1H-benzo[d]imidazole-7-carboxamide] | 5.82
8 | O=C(N[C@H]1CC[C@H](O)CC1)c1ccc(O)c2[nH]c(-c3cccs3)nc12 [Example 20, 7-Hydroxy-N-(4-hydroxycyclohexyl)-2-(thiophen-2-yl)-1H-benzo[d]imidazole-4-carboxamide] | 7.59
9 | O=C(NCCN1CCNCC1)c1ccc(O)c2[nH]c(-c3cccs3)nc12 [Example 36, 7-Hydroxy-N-[2-(piperazin-1-yl)ethyl]-2-(thiophen-2-yl)-1H-benzo[d]imidazole-4-carboxamide] | 6.68
10 | O=C(NCC1CNC1)c1ccc(O)c2[nH]c(-c3cccs3)nc12 [Example 43, N-(Azetidin-3-ylmethyl)-7-hydroxy-2-(thiophen-2-yl)-1H-benzo[d]imidazole-4-carboxamide] | 7.37
11 | O=C(NCC1CCCNC1)c1ccc(O)c2[nH]c(C3CC4CCC3C4)nc12 (stereo not drawn) [Example 48, 2-(Bicyclo[2.2.1]heptan-2-yl)-7-hydroxy-N-(piperidin-3-ylmethyl)-1H-benzo[d]imidazole-4-carboxamide] | 7.17
12 | O=C(NC1CCCNC1)c1ccc(O)c2[nH]c(C3CC4CCC3C4)nc12 (stereo not drawn) [Example 49, 2-(Bicyclo[2.2.1]heptan-2-yl)-7-hydroxy-N-(piperidin-3-yl)-1H-benzo[d]imidazole-4-carboxamide] | 6.64
13 | CC(C)(C)OC(=O)N1CCC[C@H](NC(=O)c2ccc(O)c3[nH]c(-c4ccc(Br)s4)nc23)C1 [Example 50, (S)-tert-Butyl 3-(2-(5-bromothiophen-2-yl)-7-hydroxy-1H-benzo[d]imidazole-4-carboxamido)piperidine-1-carboxylate] | 5.47
14 | O=C(N[C@H]1CCCNC1)c1ccc(O)c2[nH]c(C3CC4CCC3C4)nc12 (stereo partly drawn) [Example 52, 2-(Bicyclo[2.2.1]heptan-2-yl)-7-hydroxy-N-((S)-piperidin-3-yl)-1H-benzo[d]imidazole-4-carboxamide] | 6.82
15 | NC12CC3CC(C1)CC(NC(=O)c1ccc(O)c4[nH]c(C5CC6CCC5C6)nc14)(C3)C2 (stereo not drawn) [Example 53] | 5.72
16 | NC12CC3CC(C1)CC(NC(=O)c1ccc(O)c4[nH]c(-c5cccs5)nc14)(C3)C2 [Example 54, 2-(Thiophene-2-yl)-7-hydroxy-N-(adamantate-3-ylamino)-1H-benzo[d]imidazole-4-carboxamide] | 6.48
17 | N[C@H]1CC[C@@H](CNC(=O)c2ccc(O)c3[nH]c(C4CC5CCC4C5)nc23)CC1 (stereo partly drawn) [Example 56, N-{[(cis)-4-Aminocyclohexyl]methyl}-2-(bicyclo[2.2.1]heptan-2-yl)-7-hydroxy-1H-benzo[d]imidazole-4-carboxamide] | 6.62
18 | O=C(N[C@H]1CCCNC1)c1ccc(O)c2[nH]c(-c3ccc(N4CCNCC4)s3)nc12 [Example 57, (S)-7-hydroxy-2-(5-(piperazin-1-yl)thiophen-2-yl)-N-(piperidin-3-yl)-1H-benzo[d]imidazole-4-carboxamide] | 7.42

Continued by rising pIC50, values first:

Row | pIC50 | Structure (SMILES)
19 | 4.66 | O=C(c1ccc(O)c2[nH]c(-c3cccs3)nc12)N1CCNCC1 [Example 21, (7-hydroxy-2-[thiophen-2-yl]-1H-benzo[d]imidazol-4-yl)(piperazin-1-yl)methanone]
20 | 5.80 | O=C(NCC1CCCNC1)c1ccc(O)c2[nH]c(C3CC3)nc12 (stereo not drawn) [Example 6, 2-Cyclopropyl-4-hydroxy-N-(piperidin-3-yl-methyl)-1H-benzo[d]imidazole-7-carboxamide]
21 | 5.89 | CN1CCCC(NC(=O)c2ccc(O)c3[nH]c(C4CC4)nc23)C1 (stereo not drawn) [Example 8, 2-cyclopropyl-4-hydroxy-N-(1-methylpiperidin-3-yl)-1H-benzo[d]imidazole-7-carboxamide]
22 | 6.60 | NC1CCCC(NC(=O)c2ccc(O)c3[nH]c(C4CC5CCC4C5)nc23)C1 (stereo not drawn) [Example 55, N-(3-Aminocyclohexyl)-2-(bicyclo[2.2.1]heptan-2-yl)-7-hydroxy-1H-benzo[d]imidazole-4-carboxamide]
23 | 6.62 | O=C(NCC1CCCCN1)c1ccc(O)c2[nH]c(-c3cccs3)nc12 (stereo not drawn) [Example 45, 7-Hydroxy-N-(piperidin-2-ylmethyl)-2-(thiophen-2-yl)-1H-benzo[d]imidazole-4-carboxamide]
24 | 6.68 | O=C(NC1CCNC1)c1ccc(O)c2[nH]c(C3CC3)nc12 (stereo not drawn) [Example 12, 2-cyclopropyl-4-hydroxy-N-(pyrrolidin-3-yl)-1H-benzo[d]imidazole-7-carboxamide]
25 | 6.74 | CN1CCCC(NC(=O)c2ccc(O)c3[nH]c(-c4cccs4)nc23)C1 (stereo not drawn) [Example 41, 7-Hydroxy-N-(1-methylpiperidin-3-yl)-2-(thiophen-2-yl)-1H-benzo[d]imidazole-4-carboxamide]
26 | 6.77 | O=C(N[C@H]1CCCNC1)c1ccc(O)c2[nH]c(Cc3cccs3)nc12 [Example 59, (S)-7-hydroxy-N-(piperidin-3-yl)-2-(thiophen-2-ylmethyl)-1H-benzo[d]imidazole-4-carboxamide]
27 | 6.85 | O=C(NCC1CNC1)c1ccc(O)c2[nH]c(C3CC3)nc12 [Example 13, N-(azetidin-3-ylmethyl)-2-cyclopropyl-4-hydroxy-1H-benzo[d]imidazole-7-carboxamide]
28 | 6.89 | O=C(NCC1CCCNC1)c1ccc(O)c2[nH]c(-c3ccccc3)nc12 (stereo not drawn) [Example 19, 4-hydroxy-2-phenyl-N-(piperidin-3-ylmethyl)-1H-benzo[d]imidazole-7-carboxamide]
29 | 6.92 | O=C(N[C@H]1CCCNC1)c1ccc(O)c2[nH]c(C3CCCC3)nc12 [Example 16, (S)-2-Cyclopentyl-4-hydroxy-N-(piperidin-3-yl)-1H-benzo[d]imidazole-7-carboxamide]
30 | 6.92 | O=C(N[C@H]1CCCNC1)c1ccc(O)c2[nH]c(-c3ccccc3)nc12 [Example 17, (S)-4-Hydroxy-2-phenyl-N-(piperidin-3-yl)-1H-benzo[d]imidazole-7-carboxamide]
31 | 6.96 | O=C(NC1CCNC1)c1ccc(O)c2[nH]c(-c3cccs3)nc12 (stereo not drawn) [Example 44, 7-Hydroxy-N-(pyrrolidin-3-yl)-2-(thiophen-2-yl)-1H-benzo[d]imidazole-4-carboxamide]
32 | 7.00 | O=C(NCC1CCCCN1)c1ccc(O)c2[nH]c(C3CC3)nc12 (stereo not drawn) [Example 7, 2-Cyclopropyl-4-hydroxy-N-(piperidin-2-ylmethyl)-1H-benzo[d]imidazole-7-carboxamide]
33 | 7.00 | O=C(NCC1CCNCC1)c1ccc(O)c2[nH]c(-c3cccs3)nc12 [Example 42, 7-Hydroxy-N-(piperidin-4-ylmethyl)-2-(thiophen-2-yl)-1H-benzo[d]imidazole-4-carboxamide]
34 | 7.00 | O=C(NC[C@@H]1CCCNC1)c1ccc(O)c2[nH]c(Cc3cccs3)nc12 [Example 58, (R)-7-hydroxy-N-(piperidin-3-ylmethyl)-2-(thiophen-2-ylmethyl)-1H-benzo[d]imidazole-4-carboxamide]
35 | 7.29 | N[C@H]1CC[C@H](NC(=O)c2ccc(O)c3[nH]c(-c4cccs4)nc23)CC1 [Example 47, N-(4-Aminocyclohexyl)-7-hydroxy-2-(thiophen-2-yl)-1H-benzo[d]imidazole-4-carboxamide]
36 | 7.60 | O=C(NCC1CCNC1)c1ccc(O)c2[nH]c(-c3cccs3)nc12 (stereo not drawn) [Example 46, 7-Hydroxy-N-(pyrrolidin-3-ylmethyl)-2-(thiophen-2-yl)-1H-benzo[d]imidazole-4-carboxamide]
37 | 7.74 | O=C(NC1CCNCC1)c1ccc(O)c2[nH]c(-c3cccs3)nc12 [Example 40, 7-Hydroxy-N-(piperidin-4-yl)-2-(thiophen-2-yl)-1H-benzo[d]imidazole-4-carboxamide]
38 | 7.80 | O=C(N[C@H]1CCCNC1)c1ccc(O)c2[nH]c(-c3ccc(Br)s3)nc12 [Example 51, (S)-2-(5-bromothiophen-2-yl)-7-hydroxy-N-(piperidin-3-yl)-1H-benzo[d]imidazole-4-carboxamide]
39 | 8.07 | O=C(NCC1CCCNC1)c1ccc(O)c2[nH]c(-c3cccs3)nc12 (stereo not drawn) [Example 39, 7-Hydroxy-N-(piperidin-3-ylmethyl)-2-(thiophen-2-yl)-1H-benzo[d]imidazole-4-carboxamide]
